Earlier results, collected in patent publication US6699701B1, “Method and device for sanitation using bacteriophages” (priority 2000, dated 2004).

Test system: bacterial counts
Conditions: fresh-cut fruits, most effective chemical sanitizer

For `OO` [hydrogen peroxide], the “maximum reduction rate in bacterial counts” value is given as no more than 1.3 logs.
